From article PMC4581254, “Identification of Hydroxyanthraquinones as Novel Inhibitors of Hepatitis C Virus NS3 Helicase” (International Journal of Molecular Sciences, 2015)
Structures can show the parent of a compound that is named as a salt. Where two headings read alike, the source gives them in different places.

Columns and labels:
HCV NS3 helicase [1] = molecular target: T1, HCV NS3 helicase (Hepatitis C virus genotype 1b, UniProt P26662); experiment: FRET-based fluorescence helicase assay (dsRNA unwinding); assay type: biochemical
T1 construct: The full-length HCV NS3 protein, with serine protease and NTPase/helicase activities; made in house
T1 sequence (P26662 1027-1657): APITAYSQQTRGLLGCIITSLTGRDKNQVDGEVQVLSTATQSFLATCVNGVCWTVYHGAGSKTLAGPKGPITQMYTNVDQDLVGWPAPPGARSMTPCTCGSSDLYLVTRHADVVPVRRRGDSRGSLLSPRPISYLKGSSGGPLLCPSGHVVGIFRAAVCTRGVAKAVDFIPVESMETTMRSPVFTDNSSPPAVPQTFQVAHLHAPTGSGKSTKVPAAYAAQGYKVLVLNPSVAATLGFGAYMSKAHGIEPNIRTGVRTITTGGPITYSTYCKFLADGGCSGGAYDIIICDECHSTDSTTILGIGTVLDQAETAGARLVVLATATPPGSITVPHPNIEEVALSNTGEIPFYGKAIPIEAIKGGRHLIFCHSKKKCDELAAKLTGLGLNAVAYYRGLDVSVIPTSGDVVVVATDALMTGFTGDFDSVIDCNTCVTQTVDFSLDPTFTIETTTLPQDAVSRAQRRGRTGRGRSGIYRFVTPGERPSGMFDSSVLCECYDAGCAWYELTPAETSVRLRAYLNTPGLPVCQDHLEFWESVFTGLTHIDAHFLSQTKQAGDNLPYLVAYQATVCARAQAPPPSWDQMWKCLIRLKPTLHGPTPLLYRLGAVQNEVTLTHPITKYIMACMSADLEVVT
Method: A fluorescence helicase assay based on FRET [26, 27], with modifications in the fluorescent dyes, was used to examine NS3 helicase inhibition by different compounds. […] The concentration of the capture strand was optimized to 400 nM based on the Z′ value; the Z′ value validates assay conditions as having reliability and reproducibility when its value is close to 1.
The FRET-based fluorescence helicase assay was performed as described previously, with modifications in the fluorescent dyes used. The dsRNA substrate was prepared by annealing the 5′ Alexa Fluor 700-labeled fluorescence strand to the 3′ BHQ3-labeled quencher strand in a 1:2 molar ratio. The dsRNA substrate contained the 3′-overhang that is necessary for the NS3 helicase to bind to it prior to duplex unwinding. The capture strand had sequence complementary to the quencher strand and prevented the unwound duplexes from reannealing. All the nucleic acid strands had the same nucleic acid sequences as described previously and were purchased from Japan Bio Services (Saitama, Japan). The reaction mixture contained 25 mM MOPS-NaOH (pH 6.5), 3 mM MgCl2, 2 mM dithiothreitol, 4 U RNasin (Promega, Madison, WI, USA), 50 nM dsRNA substrate, 400 nM capture strand, 5 mM ATP, a serial dilution of test compounds in DMSO vehicle, and 240 nM NS3 helicase in a total reaction volume of 20 µL. The full-length HCV NS3 protein, with serine protease and NTPase/helicase activities, was expressed and purified as described previously.
The reaction was started by the addition of HCV NS3 helicase and was performed at 37 °C for 30 min in a SpectraMax Gemini XS microplate reader (Molecular Devices, Sunnyvale, CA, USA). The fluorescence intensity was recorded every 20 s for 30 min. Helicase activity was calculated as the initial reaction velocity relative to that of the control (in the absence of a test compound but presence of DMSO vehicle). The IC50 was calculated using KaleidaGraph (Synergy Software, Reading, PA, USA) by fitting plots of % activity vs. [I] using Equation (1) unless otherwise stated: (1) % Activity= 100/1+([I]/IC50)^h where h is the Hill coefficient, and [I] is the inhibitor concentration.

NS3 helicase = conditions: read-out: IC50 for NS3 helicase inhibition, cited from earlier work
NS3 RNA-binding activity = molecular target: T2, NS3 RNA-binding activity (Hepatitis C virus genotype 1b, UniProt P26662); experiment: RNA-binding assay (gel mobility-shift); conditions: 32P-labeled ssRNA, 300 nM NS3, 0–100 µM tested
T2 construct: The full-length HCV NS3 protein, with serine protease and NTPase/helicase activities; made in house
T2 sequence (P26662 1027-1657): as above
Method: As RNA binding is required for NS3 helicase activity, the effect of hypericin on NS3 RNA-binding activity was examined by gel mobility-shift assay (Figure 4). As a control, the non-specific binding of ssRNA to bovine serum albumin (BSA) was assessed (lane 2). The density of the upper bands corresponding to the NS3–ssRNA complex, which represents NS3 RNA-binding activity, decreased dose-dependently in the presence of hypericin, particularly in the concentration range of 3–10 µM.
NS3 RNA-binding activity was determined by gel mobility-shift assay, as described previously. The ssRNA (5′-[…]-3′) synthesized by Gene Design (Osaka, Japan) was labeled at the 5′-end with [γ-^32P]ATP (Muromachi Yakuhin) using T4 polynucleotide kinase (Toyobo, Osaka, Japan) at 37 °C for 60 min, and purified using the phenol-chloroform extraction method. The reaction mixture contained 30 mM Tris-HCl (pH 7.5), 100 mM NaCl, 2 mM MgCl2, 1 mM dithiothreitol, 20 U RNasin Plus (Promega), 300 nM NS3, 0.5 nM ^32P-labeled ssRNA, and increasing concentrations of hypericin in a total reaction volume of 20 μL. The reaction was performed at room temperature for 15 min. […] The labeled RNA bands were visualized using an Image Reader FLA-9000 (Fujifilm, Tokyo, Japan).

HCV NS3 helicase [2] = molecular target: T1, HCV NS3 helicase; experiment: Gel-based helicase assay; assay type: biochemical; conditions: compared with the fluorescence helicase assay, Figure S2
Method: A gel-based helicase assay was performed as described previously. The dsRNA substrate was prepared by annealing the 5′ Alexa Fluor 488-labeled fluorescence strand to the non-labeled complementary strand in a 1:2 molar ratio. The dsRNA substrate and the capture strand had the same nucleic acid sequences as those used in the FRET-based fluorescence helicase assay, and were purchased from Japan Bio Services. The reaction mixture for HCV NS3 helicase had the same components as those used in the FRET-based fluorescence helicase assay, with increasing concentrations of a test compound in a total reaction volume of 20 µL, except for the fact that the concentration of the capture strand was 100 nM. The reaction was started by the addition of HCV NS3 helicase and performed at 37 °C for 60 min using the GeneAmp PCR System 2700 (Applied Biosystems, Foster City, CA, USA). […] The helicase activity was calculated as the ratio of the signal intensity derived from ssRNA in the sample containing inhibitor to that in the control sample containing DMSO vehicle instead of inhibitor.

[3] = test system: Huh-7 cell line harboring the subgenomic replicon RNAs of HCV genotype 1b strain N; experiment: HCV replicon assay (luciferase); assay type: cell-based, Hepatitis C virus; conditions: for EC50: Hepatitis C virus, HCV subgenomic replicon, genotype 1b strain N, Huh-7, 72 h, mean ± SD of three replicates, read-out: EC50 (inhibition of HCV replication)
Method: The Huh-7 cell line harboring the subgenomic replicon RNAs of HCV genotype 1b strain N [51] was seeded at 2 × 10^4 cells per well in a 48-well plate and incubated at 37 °C for 24 h. The cells were treated with hypericin or sennidin A at various concentrations at 37 °C for 72 h, and then lysed in cell culture lysis reagent (Promega). A luciferase assay system (Promega) was used to determine the luciferase activity, and the luminescence was measured using a Luminescencer-JNR AB-2100 (ATTO, Tokyo, Japan), corresponding to the expression level of the HCV replicon. The anti-HCV activity of hypericin or sennidin A was calculated as the ratio of the intensity of the luminescence in the sample containing inhibitor to that in the control sample containing DMSO vehicle instead of inhibitor.

NS3 ATPase activity = molecular target: T3, NS3 ATPase activity (Hepatitis C virus genotype 1b, UniProt P26662); experiment: ATPase assay ([γ-32P]ATP hydrolysis, thin-layer chromatography); assay type: biochemical; conditions: autoradiography, poly(U) RNA, 300 nM NS3, 0–100 µM tested
T3 construct: The full-length HCV NS3 protein, with serine protease and NTPase/helicase activities; made in house
T3 sequence (P26662 1027-1657): as above
Method: As the unwinding ability of NS3 helicase is dependent on ATP hydrolysis, the amount of inorganic phosphate (Pi) released from radioisotope-labeled ATP ([γ-^32P]ATP) was measured to determine the effects of hypericin on the ATPase activity of NS3 (Figure 3). The released ^32Pi was separated by thin-layer chromatography and visualized using autoradiography. The density of the upper spots corresponding to Pi, which represents ATPase activity, decreased dose-dependently, particularly in the concentration range of 1–5 µM hypericin. […] It is thus likely that hypericin inhibits NS3 helicase via the inhibition of ATPase activity.
NS3 ATPase activity was determined directly by monitoring [γ-^32P]ATP hydrolysis by thin-layer chromatography, as described previously. The reaction mixture contained 25 mM MOPS-NaOH (pH 7.0), 1 mM dithiothreitol, 5 mM MgCl2, 5 mM CaCl2, 1 mM [γ-^32P]ATP (Muromachi Yakuhin, Tokyo, Japan), 300 nM NS3, 0.1 μg/μL poly(U) ssRNA (Sigma-Aldrich), and increasing concentrations of hypericin in a total reaction volume of 10 μL. The reaction was conducted at 37 °C for 10 min, and stopped by the addition of 10 mM EDTA. […] The cellulose sheet was dried, and the released [γ-^32P]phosphoric acid was visualized using an Image Reader FLA-9000 (Fuji film, Tokyo, Japan).

Cytotoxicity assay (MTS) = assay type: cell-based; conditions: human, Huh-7 replicon cells, mean ± SD of three replicates, read-out: CC50 (reduction in cell viability)
Method: The Huh-7 cell line harboring the subgenomic replicon RNAs of HCV genotype 1b strain N [51] was seeded at 2 × 10^4 cells per well in a 48-well plate and incubated at 37 °C for 24 h. The cells were treated with hypericin or sennidin A at various concentrations at 37 °C for 72 h. The MTS assay was carried out to determine cytotoxicity using a CellTiter 96 aqueous one-solution cell proliferation assay kit (Promega) according to the manufacturer’s instructions. The cytotoxicity of hypericin or sennidin A was calculated as the ratio of the […] in the sample containing inhibitor to that in the control sample containing DMSO vehicle instead of inhibitor.

[4] = fluorescence helicase assay, dsRNA substrate, 240 nM NS3, 5 mM ATP, 37 °C, read-out: IC50 for NS3 helicase inhibition

SMILES: O=C1c2ccccc2C(=O)c2c1cc(O)c(O)c2O [1,2,3-trihydroxyanthraquinone]
- IC50 (HCV NS3 helicase [1]; [4]): 18 µM

SMILES: O=C1c2ccccc2C(=O)c2c(O)c(O)cc(O)c21 [1,2,4-trihydroxyanthraquinone]
- IC50 (HCV NS3 helicase [1]): 11 µM

SMILES: O=C1c2ccccc2C(=O)c2c1ccc(O)c2O [1,2-dihydroxyanthraquinone]
- IC50 (HCV NS3 helicase [1]): > 200 µM

SMILES: O=C1c2ccc(O)c(O)c2C(=O)c2c(O)ccc(O)c21 [1,4,5,6-tetrahydroxyanthraquinone]
- IC50 (HCV NS3 helicase [1]; [4]): 98 µM

SMILES: O=C1c2c(O)ccc(O)c2C(=O)c2c(O)ccc(O)c21 [1,4,5,8-tetrahydroxyanthraquinone]
- IC50 (HCV NS3 helicase [1]; [4]): 6 µM

SMILES: O=C1c2ccccc2C(=O)c2c(O)ccc(O)c21 [1,4-dihydroxyanthraquinone]
- IC50 (HCV NS3 helicase [1]; [4]): 54 µM

SMILES: O=C1c2cccc(O)c2C(=O)c2cccc(O)c21 [1,5-dihydroxyanthraquinone]
- IC50 (HCV NS3 helicase [1]; [4]): > 200 µM

SMILES: O=C1c2cccc(O)c2C(=O)c2c(O)cccc21 [1,8-dihydroxyanthraquinone]
- IC50 (HCV NS3 helicase [1]; [4]): > 200 µM

SMILES: CC(C)CCC[C@@H](C)[C@H]1CC[C@H]2[C@@H]3CC=C4C[C@@H](OS(=O)(=O)O)CC[C@]4(C)[C@H]3CC[C@]12C [Cholesterol sulfate]
- IC50 (NS3 helicase; positive control of the gel-based helicase assay): 1.7 µM

SMILES: Cc1cc(O)c2c(=O)c3c(O)cc(O)c4c5c(O)cc(O)c6c(=O)c7c(O)cc(C)c8c1c2c(c34)c(c78)c65 [Hypericin, hypericin]
- Concentration range in which NS3 RNA-binding activity decreased dose-dependently (NS3 RNA-binding activity): 3 to 10 µM
- NS3 helicase inhibition in gel-based helicase assay (HCV NS3 helicase [2]): quite similar to that in the fluorescence helicase assay
- IC50 (HCV NS3 helicase [1]): 3 µM
- SI, selectivity index (CC50/EC50) ([3]; CC50/EC50 in Huh-7 replicon cells): 11.7
- EC50 [3]: 3.5 ± 0.2 µM
- Concentration range in which NS3 ATPase activity decreased dose-dependently (NS3 ATPase activity): 1 to 5 µM
- CC50 at 72 h (Cytotoxicity assay (MTS)): 41.1 ± 9.5 µM

SMILES: O=C(O)c1cc(O)c2c(c1)[C@H]([C@@H]1c3cccc(O)c3C(=O)c3c(O)cc(C(=O)O)cc31)c1cccc(O)c1C2=O [Sennidin A, sennidin A]
- NS3 helicase inhibition in gel-based helicase assay (HCV NS3 helicase [2]): quite similar to that in the fluorescence helicase assay
- IC50 (HCV NS3 helicase [1]; [4]): 0.8 µM
- EC50 [3]: > 80 µM
- CC50 at 72 h (Cytotoxicity assay (MTS)): > 80 µM

SMILES: O=C1c2c(O)ccc(O)c2C(=O)c2c(NCCNCCO)ccc(NCCNCCO)c21 [mitoxantrone]
- IC50 (NS3 helicase): 6.7 µM
